Data on one compound can be found in US20230272055A1, “ANTI-MUTANT CALRETICULIN (CALR) ANTIBODIES AND USES THEREOF” (Incyte Corporation, priority 2021, published 2023).

SMILES strings stand for the structures.

The subject of this assay is Ba/F3-TPOR/mutCALR type 1 engineered cells. Put plainly: Cell proliferation with antibody and/or ruxolitinib, mutCALR Type 1. The note with it: ruxolitinib alone at 50 nM; 72 hours; dotted line of FIG. 10 (Type 1 and Type 2 panels); read-out: inhibition of the level of oncogenic cell proliferation. It counts as cell-based. The procedure:
To test the ability of anti-mutCALR antibodies to potentiate the therapeutic response of the JAK1/2 inhibitor ruxolitinib, Ba/F3 cells were engineered to express MPL+mutCALR Type 1 (52 bp deletion) or MPL+mutCALR Type 2 (5 bp insertion) as described above. Cells were plated at 5,000 cells per well in RPMI 1640+2% FBS, treated with 50 nM of ruxolitinib and/or anti-mutCALR antibodies. Cells were incubated for 72 hours followed by assessment of cell viability using the CellTiter-Glo Luminescent Cell Viability Assay (Promega, Madison, Wis.) and Top Count (Perkin Elmer, Boston, Mass.) or Pherastar (BMG Labtech, Ortenberg, Germany) for luminescence quantification. Ruxolitinib used at a concentration of 50 nM inhibited the level of oncogenic cell proliferation by approximately 20% (dotted line).

As to `N#CC[C@H](C1CCCC1)n1cc(-c2ncnc3[nH]ccc23)cn1` [Ruxolitinib, ruxolitinib, reference compound], the inhibition at 0.05 µM is approximately 20%.
